Measurements: patent US20180360025A1, “ARTICLE OF MANUFACTURE AND METHODS FOR INCREASING SURVIVAL OF RED BLOOD CELLS” (Ramot at Tel-Aviv University Ltd., priority 2015, published 2018)

Test system: CytoD-treated RBC
Test: Recovery of CytoD-treated RBCs (Wright Giemsa stain and immunofluorescence)
Format: cell-based, human
Conditions: CytoD 3 h, immunofluorescence
Protocol: Cytochalasin D (CytoD) is known to inhibit actin polymerization or depolymerization at barbed ends. The recovery effects of Wnts CM in RBCs was tested after incubation with CytoD in order to evaluate the potential effect of Wnt3/5 on polymerized actin in RBCs (FIGS. 12A-B). As show in FIGS. 12A-B, RBCs incubated with a medium containing Cyto D for 3 h, and then with Wnt 3/5 CM (in the absence of CytoD) for 6 h, were stained using two different methods. […] (FIG. 12B).

Question: `C=C1[C@@H](C)[C@H]2[C@H](Cc3ccccc3)NC(=O)[C@]23[C@H](OC(C)=O)/C=C/[C@@](C)(O)C(=O)[C@@H](C)C/C=C/[C@H]3[C@@H]1O` [CytoD, Cytochalasin D] was tested. Which “actin state in RBCs after CytoD treatment” value did it give?
Answer: aggregates of cytoplasm actin
